Assay results reported in patent US20120035251A1, “THIOPHENE INHIBITORS OF IKK-B SERINE-THREONINE PROTEIN KINASE” (CHROMA THERAPEUTICS LD., priority 2009, published 2012).
Like-named read-outs stand apart in the source and are kept apart here.

Key:
[1] = system: TNF-α production in THP-1 cells; assay: LPS-stimulation of THP-1 cells, TNF-α by ELISA; assay type: cell-based; conditions: Homo sapiens
Protocol: THP-1 cells were plated in 100 μl at a density of 4×10^4 cells/well in V-bottomed 96 well tissue culture treated plates and incubated at 37° C. in 5% CO2 for 16 hours. 2 hours after the addition of the inhibitor in 100 μl of tissue culture media, the cells were stimulated with LPS (E coli strain 005:B5, Sigma) at a final concentration of 1 μg/ml and incubated at 37° C. in 5% CO2 for 6 hrs. TNF-α levels were measured from cell-free supernatants by sandwich ELISA (R&D Systems #QTA00B).

[2] = system: TNF-α production in human whole blood; assay: LPS-stimulation of human whole blood, TNF-α by ELISA; assay type: cell-based
Protocol: Whole blood was taken by venous puncture using heparinised vacutainers (Becton Dickinson) and diluted in an equal volume of RPMI1640 tissue culture media (Sigma). 100 μl was plated in V-bottomed 96 well tissue culture treated plates. 2 hours after the addition of the inhibitor in 100 μlof RPMI1640 media, the blood was stimulated with LPS (E coli strain 005:B5, Sigma) at a final concentration of 100 ng/ml and incubated at 37° C. in 5% CO2 for 6 hours. TNF-α levels were measured from cell-free supernatants by sandwich ELISA (R&D Systems #QTA00B).

[3] = system: U937 (monocyte cell line) cells; assay: Intact cell accumulation assay, U937 cells; assay type: in vitro ADME; conditions: 6 μmol/L compound
Protocol: (§1) Cells (4×10^4/mL) were incubated at 37° C. in culture medium containing 6 μmol/L compound in a 5% (v/v) CO2-humidified atmosphere. Incubations were terminated after 6 h by centrifugation of 25 mL aliquots of the cell suspension at 1500 rpm for 5 min at 4° C. 0.2 mL samples of the culture media supernatants were added to four volumes of acetonitrile. After decanting the supernatant, the residual cell pellet (10^6 cells) was extracted into 1 mL of acetonitrile. Samples were then analyzed for the ester and acid metabolite at room temperature by LC/MS/MS (Sciex API3000). Chromatography was based on a MeCN (75×21 mm) column with a 5% to 95% (v/v) acetonitrile/water, 0.1% (v/v) formic acid mobile phase. For the zero time samples, the cell suspension was chilled and centrifuged as soon as the ester had been added and then extracted into acetonitrile as described. Levels in cells are expressed as ng/mL.

[4] = target: T1, IKKβ (Homo sapiens, UniProt O14920); assay: IKKβ enzyme assay (Z'-LYTE, Invitrogen); assay type: biochemical
T1 construct: purchased Invitrogen (Paisley, UK)
T1 sequence (O14920 1-756): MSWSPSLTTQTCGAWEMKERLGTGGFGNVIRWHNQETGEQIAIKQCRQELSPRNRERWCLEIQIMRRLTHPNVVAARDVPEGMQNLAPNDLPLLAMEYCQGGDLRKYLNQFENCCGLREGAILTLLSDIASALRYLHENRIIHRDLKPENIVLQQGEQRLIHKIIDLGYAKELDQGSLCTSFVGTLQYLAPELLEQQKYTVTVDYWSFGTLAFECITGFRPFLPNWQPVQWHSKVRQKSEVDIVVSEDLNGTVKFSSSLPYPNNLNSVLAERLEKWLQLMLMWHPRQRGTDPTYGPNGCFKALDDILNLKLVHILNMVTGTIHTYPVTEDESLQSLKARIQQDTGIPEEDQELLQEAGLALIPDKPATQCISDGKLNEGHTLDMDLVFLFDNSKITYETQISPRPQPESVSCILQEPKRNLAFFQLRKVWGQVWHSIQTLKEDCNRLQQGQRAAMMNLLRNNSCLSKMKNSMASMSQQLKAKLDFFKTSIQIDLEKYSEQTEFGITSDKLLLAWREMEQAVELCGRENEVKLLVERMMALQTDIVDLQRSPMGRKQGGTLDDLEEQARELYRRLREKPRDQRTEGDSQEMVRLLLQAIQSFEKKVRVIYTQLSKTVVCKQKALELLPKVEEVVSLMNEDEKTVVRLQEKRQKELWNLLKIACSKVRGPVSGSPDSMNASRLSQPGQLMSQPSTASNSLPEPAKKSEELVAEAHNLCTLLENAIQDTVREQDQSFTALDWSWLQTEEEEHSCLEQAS
Protocol: The ability of compounds to inhibit IKKβ kinase activity was measured in an assay performed by Invitrogen (Paisley, UK). The Z′-LYTE™ biochemical assay employs a fluorescence-based, coupled-enzyme format and is based on the differential sensitivity of phosphorylated and non-phosphorylated peptides to proteolytic cleavage. The peptide substrate is labelled with two fluorophores—one at each end—that make up a FRET pair. In the primary reaction, the kinase transfers the gamma-phosphate of ATP to a single serine or threonine residue in a synthetic FRET-peptide. In the secondary reaction, a site-specific protease recognizes and cleaves non-phosphorylated FRET-peptides. Phosphorylation of FRET-peptides suppresses cleavage by the Development Reagent. Cleavage disrupts FRET between the donor (i.e., coumarin) and acceptor (i.e. fluorescein) fluorophores on the FRET-peptide, whereas uncleaved, phosphorylated FRET-peptides maintain FRET. A […] method, which calculates the ratio (the Emission Ratio) of donor emission to acceptor emission after excitation of the donor fluorophore at 400 nm, is used to quantitate reaction progress.
The final 10 μL Kinase Reaction consists of 0.9-8.0 ng IκBKB (IKKβ), 2 μM Ser/Thr 05 Peptide and ATP in 50 mM HEPES pH 7.5, 0.01% BRIJ-35, 10 mM MgCl2, 1 mM EGTA. The assay is performed at an ATP concentration at, or close to the Km. After the 60 minute Kinase Reaction incubation at room temperature, 5 μL of a 1:128 dilution of Development Reagent is added. The assay plate is incubated for a further 60 minutes at room temperature and read on a fluorescence plate reader.
Duplicate data points are generated from a 1/3 log dilution series of a stock solution of test compound in DMSO. Nine dilutions steps are made from a top concentration of 10 μM, and a ‘no compound’ blank is included. Data is collected and analysed using XLfit software from IDBS. The dose response curve is curve fitted to model number 205 (sigmoidal dose-response model). From the curve generated, the concentration giving 50% inhibition is determined and reported.

[5] = system: HUT78 (non-monocyte cell line) cells; assay: Intact cell accumulation assay, HUT78 cells; assay type: in vitro ADME; conditions: 6 μmol/L compound
Protocol: as §1

[6] = THP-1, read-out: Inhibition of TNF-α production in THP-1 cells (IC50)
[7] = LPS-stimulated THP-1 cells, TNF-α, read-out: IC50 (nM) THP-1
[8] = LPS-stimulated human whole blood, TNF-α, read-out: IC50 (nM) Human Whole Blood
[9] = compound as drawn (Ester for the Example 1 row), read-out: Inhibition of IKKβ (IC50 nM)
[10] = read-out: IC50 (nM) IKKβ Enzyme

## CC(C)C[C@H](NCc1ccc(Cc2cc(C(N)=O)c(NC(N)=O)s2)cc1)C(=O)OC1CCCC1 [Example 1, Cyclopentyl N-(4-{[4-carbamoyl-5-(carbamoylamino)-2-thienyl]methyl}benzyl)-L-leucinate]
[1]; [6]
  IC50: 1940 nM
[1]; [7]
  IC50: 500 to 5000 nM
[2]
  Ratio of whole blood IC50 to enzyme IC50: 0.05
[2]; Homo sapiens, read-out: Inhibition of TNF-α production in human whole blood (IC50)
  IC50: 497 nM
[2]; [8]
  IC50: < 500 nM
[3]; 0 hrs incubation
  Concentration in U937 cell line: 420 ng/10^6 cells
[3]; 6 hrs incubation
  Concentration in U937 cell line: 217 ng/10^6 cells
[4]; Acid: the acid of the drawn ester (Example 1), read-out: Inhibition of IKKβ (IC50 nM), Acid
  IC50: 369 nM
[4]; [9]
  IC50: 10000 nM
[4]; [10]
  IC50: > 5000 nM
[5]; 0 hrs incubation
  Concentration in HUT78 cell line: 466 ng/10^6 cells
[5]; 6 hrs incubation
  Concentration in HUT78 cell line: 465 ng/10^6 cells

## CC(C)C[C@H](NCc1ccc(Cc2cc(C(N)=O)c(NC(N)=O)s2)cc1)C(=O)OC(C)(C)C [Example 2, tert-Butyl N-(4-{[4-carbamoyl-5-(carbamoylamino)-2-thienyl]methyl}benzyl)-L-leucinate]
[1]; [7]
  IC50: > 5000 nM
[2]; [8]
  IC50: > 5000 nM
[4]; [10]
  IC50: 500 to 5000 nM

## CC(C)C[C@H](NCc1ccc(CCc2cc(C(N)=O)c(NC(N)=O)s2)cc1)C(=O)OC1CCCC1 [Example 3, Cyclopentyl N-(4-{2-[4-carbamoyl-5-(carbamoylamino)-2-thienyl]ethyl}benzyl)-L-leucinate]
[1]; [7]
  IC50: > 5000 nM
[2]; [8]
  IC50: 500 to 5000 nM
[4]; [10]
  IC50: > 5000 nM

## CC(C)C[C@H](NCc1ccc(C#Cc2cc(C(N)=O)c(NC(N)=O)s2)cc1)C(=O)OC1CCCC1 [Example 4, Cyclopentyl N-(4-{[4-carbamoyl-5-(carbamoylamino)-2-thienyl]ethynyl}benzyl)-L-leucinate]
[1]; [7]
  IC50: 500 to 5000 nM
[2]; [8]
  IC50: 500 to 5000 nM
[4]; [10]
  IC50: > 5000 nM

## CC(C)C[C@H](NCc1ccc(Cc2cc(C(N)=O)c(NC(N)=O)s2)cc1)C(=O)O [Example 5, N-(4-{[4-Carbamoyl-5-(carbamoylamino)-2-thienyl]methyl}benzyl)-L-leucine]
[3]; 0 hrs incubation
  Concentration in U937 cell line: 68 ng/10^6 cells
[3]; 6 hrs incubation
  Concentration in U937 cell line: 286 ng/10^6 cells
[4]; [10]
  IC50: < 500 nM
[5]; 0 hrs incubation
  Concentration in HUT78 cell line: 0 ng/10^6 cells

## CC(C)C[C@H](NCc1ccc(CCc2cc(C(N)=O)c(NC(N)=O)s2)cc1)C(=O)O [Example 6, N-(4-{2-[4-Carbamoyl-5-(carbamoylamino)-2-thienyl]ethyl}benzyl)-L-leucine]
[4]; [10]
  IC50: 500 to 5000 nM

## NC(=O)Nc1sc(Cc2ccccc2)cc1C(N)=O [reference compound]
[1]; [6]
  IC50: 2710 nM
[2]
  Ratio of whole blood IC50 to enzyme IC50: >20
[2]; Homo sapiens, @10 μM, read-out: Inhibition of TNF-α production in human whole blood, % at single concentration
  inhibition at 10 µM: 28%
[4]; [9]
  IC50: 486 nM
